pEC50: −log10 of the molar value. “Also recorded” adds a separate entry of the source.
Key:
human islets [1] = test: Dynamic insulin secretion from perifused human islets kept at constant glucose; format: cell-based
Text: (§1) Islet Isolation. Islets were isolated as previously described (57). Monkey islets were isolated from cynomolgus monkeys (Macacca fascicularis) >4 years of age at the time of pancreas procurement, as previously described (58). Pig pancreata were procured from the local slaughterhouse. Mice (C57BL/6) and rat (Lewis rat; Harlan) islets were isolated using a rodent-islet isolation technique (59). All animal protocols were approved by the University of Miami Care and Use Committee. Human pancreatic islets were obtained from the Human Islet Cell Processing Facility at the Diabetes Research Institute, University of Miami Miller School of Medicine or from the Islet Cell Resource basic science islet distribution program, Islet Cell Resource Centers (ICRs) Consortium, Division of Clinical Research, National Center for Research Resources, National Institutes of Health. Human islets were dissociated into single cells using enzyme-free cell dissociation buffer (Invitrogen). Islets and islets cells from Q:1 all species were cultured identically (37° C. and 5% CO2) inCMRL Q:2 medium-1066 (Invitrogen), niacinamide (10 mM; Sigma), ITS (BD Biosciences), Zn2SO4 (15 μM, Sigma), GlutaMAX (2 mM; Invitrogen), Hepes (25 mM; Sigma), FBS (10%; Invitrogen), and penicillinstreptomycin (100 IU/mL-100 μg/mL; Invitrogen).
(§2) Insulin and Glucagon Secretion. Insulin and glucagon secretion were measured as previously described (8, 36). A high-capacity automated perifusion system was developed to dynamically measure hormone secretion from pancreatic islets. A low pulsatility peristaltic pump pushed Hepes-buffered solution (125 mM NaCl, 5.9 mM KCl, 2.56 mM CaCl2, 1 mM MgCl2, 25 mM Hepes, and 0.1% BSA, pH 7.4 at a perifusion rate of 100 μL/min) through a column containing 100 pancreatic islets immobilized in Bio-Gel P-4 Gel (BioRad). Except when otherwise stated, glucose concentration was adjusted to 3 mM for all experiments. Stimuli were applied with the perifusion buffer. The perifusate was collected in an automatic fraction collector designed for a 96-well plate format. The columns containing the islets and the perifusion solutions were kept at 37° C., and the perifusate in the collecting plate was kept at <4° C. Perifusates were collected every 1 min. Hormone release in the perifusate was determined with the human or mouse Endocrine LINCOplex Kit following manufacturer's instructions (Lincoresearch). Human islet preparations varied considerably in their quality. Thus, the magnitudes of the responses to different stimuli were compared with the same recording or using recordings from the same preparation.

human islets [2] = test: Glucose-induced insulin secretion (glucose raised from 3 mM to 11 mM) in perifused human islets; format: cell-based; conditions: glucose 3 mM to 11 mM, MRS2159 10 μM, Brilliant Blue G 1 μM, KN-62 1 μM, reactive blue 2 50 μM, MRS2179 10 μM, CGS15943 10 μM, adenosine 100 μM
Text: as §1, §2

human islets [3] = test: ATP-induced (or α,β meATP-induced) insulin secretion in human islets with antagonists or blockers; format: cell-based; conditions: nominal 0 Ca2+ (+1 mM EGTA), ATP 10 μM, α,β meATP 100 μM
Text: as §1, §2

monkey islets [4] = test: Insulin secretion from perifused monkey islets; format: cell-based, cynomolgus monkeys (Macacca fascicularis); conditions: increasing ATP concentrations
Text: as §1, with “Islets and islets cells from Q:1 all species were cultured identically (37° C. and 5% CO2) inCMRL Q:2 medium-1066 (Invitrogen), niacinamide (10 mM; Sigma), ITS (BD Biosciences), Zn2SO4 (15 μM, Sigma), GlutaMAX (2 mM; Invitrogen), Hepes (25 mM; Sigma), FBS (10%; Invitrogen), and penicillinstreptomycin (100 IU/mL-100 μg/mL; Invitrogen).” left out
(§3) Insulin and Glucagon Secretion. Insulin and glucagon secretion were measured as previously described (8, 36). […] Hormone release in the perifusate was determined with the human or mouse Endocrine LINCOplex Kit following manufacturer's instructions (Lincoresearch). […]

rat islets = test: Insulin secretion from perifused rat islets; format: cell-based, rat (Lewis rat); conditions: 1-1,000 μM
Text: as §1, with “Islets and islets cells from Q:1 all species were cultured identically (37° C. and 5% CO2) inCMRL Q:2 medium-1066 (Invitrogen), niacinamide (10 mM; Sigma), ITS (BD Biosciences), Zn2SO4 (15 μM, Sigma), GlutaMAX (2 mM; Invitrogen), Hepes (25 mM; Sigma), FBS (10%; Invitrogen), and penicillinstreptomycin (100 IU/mL-100 μg/mL; Invitrogen).” left out
as §3

mouse islets [5] = test: Insulin secretion from perifused mouse islets; format: cell-based, Mice (C57BL/6); conditions: 1-1,000 μM
Text: as §1, with “Islets and islets cells from Q:1 all species were cultured identically (37° C. and 5% CO2) inCMRL Q:2 medium-1066 (Invitrogen), niacinamide (10 mM; Sigma), ITS (BD Biosciences), Zn2SO4 (15 μM, Sigma), GlutaMAX (2 mM; Invitrogen), Hepes (25 mM; Sigma), FBS (10%; Invitrogen), and penicillinstreptomycin (100 IU/mL-100 μg/mL; Invitrogen).” left out
as §3

pig islets [6] = test: Insulin secretion from perifused pig islets; format: cell-based; conditions: 1-1,000 μM
Text: as §1, with “Islets and islets cells from Q:1 all species were cultured identically (37° C. and 5% CO2) inCMRL Q:2 medium-1066 (Invitrogen), niacinamide (10 mM; Sigma), ITS (BD Biosciences), Zn2SO4 (15 μM, Sigma), GlutaMAX (2 mM; Invitrogen), Hepes (25 mM; Sigma), FBS (10%; Invitrogen), and penicillinstreptomycin (100 IU/mL-100 μg/mL; Invitrogen).” left out
as §3

human islets [7] = test: Glucagon secretion from perifused human islets; format: cell-based
Text: as §1, with “Islets and islets cells from Q:1 all species were cultured identically (37° C. and 5% CO2) inCMRL Q:2 medium-1066 (Invitrogen), niacinamide (10 mM; Sigma), ITS (BD Biosciences), Zn2SO4 (15 μM, Sigma), GlutaMAX (2 mM; Invitrogen), Hepes (25 mM; Sigma), FBS (10%; Invitrogen), and penicillinstreptomycin (100 IU/mL-100 μg/mL; Invitrogen).” left out
as §3

monkey islets [8] = test: Glucagon secretion from perifused monkey islets; format: cell-based, cynomolgus monkeys (Macacca fascicularis)
Text: as §1, with “Islets and islets cells from Q:1 all species were cultured identically (37° C. and 5% CO2) inCMRL Q:2 medium-1066 (Invitrogen), niacinamide (10 mM; Sigma), ITS (BD Biosciences), Zn2SO4 (15 μM, Sigma), GlutaMAX (2 mM; Invitrogen), Hepes (25 mM; Sigma), FBS (10%; Invitrogen), and penicillinstreptomycin (100 IU/mL-100 μg/mL; Invitrogen).” left out
as §3

mouse islets [9] = test: Glucagon secretion from perifused mouse islets; format: cell-based, Mice (C57BL/6)
Text: as §1, with “Islets and islets cells from Q:1 all species were cultured identically (37° C. and 5% CO2) inCMRL Q:2 medium-1066 (Invitrogen), niacinamide (10 mM; Sigma), ITS (BD Biosciences), Zn2SO4 (15 μM, Sigma), GlutaMAX (2 mM; Invitrogen), Hepes (25 mM; Sigma), FBS (10%; Invitrogen), and penicillinstreptomycin (100 IU/mL-100 μg/mL; Invitrogen).” left out
as §3

pig islets [10] = test: Glucagon secretion from perifused pig islets; format: cell-based
Text: as §1, with “Islets and islets cells from Q:1 all species were cultured identically (37° C. and 5% CO2) inCMRL Q:2 medium-1066 (Invitrogen), niacinamide (10 mM; Sigma), ITS (BD Biosciences), Zn2SO4 (15 μM, Sigma), GlutaMAX (2 mM; Invitrogen), Hepes (25 mM; Sigma), FBS (10%; Invitrogen), and penicillinstreptomycin (100 IU/mL-100 μg/mL; Invitrogen).” left out
as §3

human P2X3 receptor = molecular target: T1, human P2X3 receptor (Homo sapiens, UniProt P56373); conditions: read-out: reported EC50 for the human P2X3 receptor; cited from earlier work
T1 sequence (P56373 1-397): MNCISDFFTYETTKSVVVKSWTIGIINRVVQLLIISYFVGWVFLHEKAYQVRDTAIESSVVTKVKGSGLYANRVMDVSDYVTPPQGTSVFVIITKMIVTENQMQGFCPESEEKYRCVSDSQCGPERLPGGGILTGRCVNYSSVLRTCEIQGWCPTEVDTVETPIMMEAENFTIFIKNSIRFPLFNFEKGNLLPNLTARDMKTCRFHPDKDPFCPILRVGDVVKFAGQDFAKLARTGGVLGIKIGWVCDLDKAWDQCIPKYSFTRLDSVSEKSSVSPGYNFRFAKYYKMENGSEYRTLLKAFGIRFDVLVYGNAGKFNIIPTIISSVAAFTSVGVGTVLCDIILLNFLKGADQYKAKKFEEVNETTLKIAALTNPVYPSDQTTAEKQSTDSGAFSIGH

P2X7 receptors = molecular target: T2, P2X7 receptors (Homo sapiens, UniProt Q99572); conditions: cited from earlier work
T2 sequence (Q99572 1-595): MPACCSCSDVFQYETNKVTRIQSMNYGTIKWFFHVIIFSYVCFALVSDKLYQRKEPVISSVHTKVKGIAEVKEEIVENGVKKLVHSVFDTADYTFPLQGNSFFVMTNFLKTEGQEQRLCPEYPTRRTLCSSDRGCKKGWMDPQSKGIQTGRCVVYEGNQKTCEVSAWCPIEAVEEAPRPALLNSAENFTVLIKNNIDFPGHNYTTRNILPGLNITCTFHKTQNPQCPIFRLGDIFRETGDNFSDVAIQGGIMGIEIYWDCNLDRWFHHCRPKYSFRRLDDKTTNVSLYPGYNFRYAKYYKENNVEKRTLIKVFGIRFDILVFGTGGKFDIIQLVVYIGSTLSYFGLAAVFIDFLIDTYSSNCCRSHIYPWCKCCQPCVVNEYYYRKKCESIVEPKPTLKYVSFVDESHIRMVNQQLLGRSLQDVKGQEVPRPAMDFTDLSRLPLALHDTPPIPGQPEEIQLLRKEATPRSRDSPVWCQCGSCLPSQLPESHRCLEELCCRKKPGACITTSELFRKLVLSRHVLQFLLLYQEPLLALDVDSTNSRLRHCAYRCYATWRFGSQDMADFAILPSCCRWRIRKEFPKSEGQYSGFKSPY

Nc1ncnc2c1ncn2[C@@H]1O[C@H](COP(=O)(O)OP(=O)(O)OP(=O)(O)O)[C@@H](O)[C@H]1O [ATP]
pEC50 (human islets [1]; 3 mM and 11 mM glucose, read-out: high affinity component of the concentration response relationship for insulin release): ~6.30 | insulin secretory response to the agonist at low glucose (human islets [1]; 3 mM glucose, ATP 100 μM (or concentration series), ATPγS 50 μM, BzATP 50 μM, α,β-methylene ATP 50 μM, ADP 100 μM, UTP 100 μM, adenosine 100 μM): elicited insulin secretory responses; also recorded: stimulated increases in insulin release concentration dependently; also recorded: promoted strong responses; also recorded: elicited large insulin and [Ca^2+]i, responses | response to high glucose (11 mM) compared with the increase elicited by ATP (1 mM) (human islets [1]; ATP 1 mM response as reference): 101%±30 | insulin release on increasing extracellular ATP >1 mM (human islets [1]; ATP >1 mM): did not further raise insulin release | insulin responses to the agonist in islets kept at high glucose (human islets [1]; constant 11 mM glucose, ATP 100 μM, ATPγS 50 μM, BzATP 50 μM, UTP 100 μM, ADP 100 μM): stimulated increases in insulin release concentration dependently; also recorded: promoted strong responses | effect on glucose-induced insulin secretion (human islets [2]): did not add to the insulin response; also recorded: not effective during abrupt increases in glucose concentration | insulin responses to the agonist in the nominal absence of extracellular Ca2+ (human islets [3]): reduced; also recorded: strongly diminished | insulin response of monkey islets (monkey islets [4]): responded to increasing concentrations of ATP like human islets | insulin response of rat islets (rat islets): No responses to ATP were observed; also recorded: neither ATP nor any of the other purinergic agonists tested stimulated insulin release; also recorded: only high concentrations of ATP (1 mM) induced small increases in insulin release | insulin response of mouse islets (mouse islets [5]): No responses to ATP were observed; also recorded: neither ATP nor any of the other purinergic agonists tested stimulated insulin release | insulin response of pig islets (pig islets [6]): No responses to ATP were observed; also recorded: neither ATP nor any of the other purinergic agonists tested stimulated insulin release | glucagon response of human islets (human islets [7]): stimulated small increases in glucagon secretion | glucagon response of monkey islets (monkey islets [8]): stimulated small increases in glucagon secretion | glucagon response of mouse islets (mouse islets [9]): difficult to discern; also recorded: stimulated small increases in glucagon secretion | glucagon response of pig islets (pig islets [10]): difficult to discern | pEC50 (human P2X3 receptor): ~6.41 | ATP concentrations required for activation of homomeric P2X7 receptors (P2X7 receptors): > 100 | pEC50 (P2X7 receptors; read-out: EC50 for activation of P2X7 receptors): 4.00

Source: US20170035793A1, “Use of P2X Purinergic Receptor Agonists to Enhance Insulin Secretion In Pancreatic Beta Cells” (priority 2010, published 2017)
